These results are taken from patent publication US20240425500A1 (priority 2021, published 2024).

As usually defined, the inhibition is the share of the control response that was lost under treatment.

This experiment deals with Pythium ultimum. The experiment in a line: Pythium ultimum / liquid culture (seedling damping off). To be noted: Globisporangium ultimum, liquid culture in PDB, 24 °C, 2-3 days after application, read-out: control of Pythium ultimum (inhibition of growth, photometric) compared to untreated control. The class given is cell-based. The protocol: Pythium ultimum/Liquid Culture (Seedling Damping Off):
Mycelia fragments and oospores of a newly grown liquid culture of the fungus are directly mixed into nutrient broth (PDB potato dextrose broth). After placing a (DMSO) solution of test compound into a microtiter plate (96-well format), the nutrient broth containing the fungal mycelia/spore mixture is added. The test plates are incubated at 24° C. and the inhibition of growth is determined photometrically 2-3 days after application.
Regarding `COC(=O)CN(C(=O)c1ccc2ncc(-c3ccc(NC(=O)OC)nc3)n2c1)c1ccc(F)c(OC)c1` [Compound 91, methyl 2-(4-fluoro-3-methoxy-N-[3-[6-(methoxycarbonyl-amino)-3-pyridyl]imidazo[1,2-a]pyridine-6-carbonyl]anilino)acetate], the inhibition at 20 ppm is ≥ 80%.

Take `COC(=O)Nc1ccc(-c2cnc3ccc(C(=O)N(C)c4ccc(C)c(C)c4)cn23)cc1` [Compound 13, methyl N-[4-[6-[(3,4-dimethylphenyl)-methyl-carbamoyl]imidazo[1,2-a]pyridin-3-yl]phenyl]carbamate]: the inhibition at 20 ppm is ≥ 80%.

Consider `CCCN(C(=O)c1ccc2ncc(-c3ccc(NC(=O)OC)cc3)n2c1)c1ccc(Cl)cc1` [Compound 30, methyl N-[4-[6-[(4-chlorophenyl)-propyl-carbamoyl]imidazo[1,2-a]pyridin-3-yl]phenyl]carbamate], for which the inhibition at 20 ppm is ≥ 80%.

For `COC(=O)Nc1ccc(-c2cnc3ccc(C(=O)N(CCC#N)c4ccc(Cl)c(C)c4)cn23)cn1` [Compound 148, methyl N-[5-[6-[(4-chloro-3-methyl-phenyl)-(2-cyanoethyl)carbamoyl]imidazo[1,2-a]pyridin-3-yl]-2-pyridyl]carbamate], the inhibition at 20 ppm is ≥ 80%.

Regarding `COC(=O)Nc1ccc(-c2cnc3ccc(C(=O)N(CC(F)(F)F)c4ccc(Cl)cc4)cn23)cc1` [Compound 29, methyl N-[4-[6-[(4-chlorophenyl)-(2,2,2-trifluoroethyl)carbamoyl]imidazo [1,2-a]pyridin-3-yl]phenyl]carbamate], the inhibition at 20 ppm was ≥ 80%.

Consider `COC(=O)Nc1ccc(-c2cnc3ccc(C(=O)N(c4ccccc4)C4CC4)cn23)cn1` [Compound 147, methyl N-[5-[6-[cyclopropyl(phenyl)carbamoyl]imidazo [1,2-a]pyridin-3-yl]-2-pyridyl]carbamate], for which the inhibition at 20 ppm is ≥ 80%.

Regarding `COC(=O)Nc1ccc(-c2cnc3cc(Br)c(C(=O)N(C)c4ccc(Cl)cc4)cn23)cc1` [Compound 34, methyl N-[4-[7-bromo-6-[(4-chlorophenyl)-methyl-carbamoyl]imidazo[1,2-a]pyridin-3-yl]phenyl]carbamate], the inhibition at 20 ppm was ≥ 80%.

In the case of `CCOC(=O)CN(C(=O)c1ccc2ncc(-c3ccc(NC(=O)OC)nc3)n2c1)c1ccc(F)cc1` [Compound 150, ethyl 2-(4-fluoro-N-[3-[6-(methoxy-carbonylamino)-3-pyridyl]imidazo[1,2-a]pyridine-6-carbonyl]anilino)acetate], the inhibition at 20 ppm was ≥ 80%.

As for `COC(=O)Nc1ccc(-c2cnc3ccc(C(=O)N(C)c4cccc(C5CC5)c4)cn23)cn1` [Compound 72, methyl N-[5-[6-[(3-cyclopropylphenyl)-methyl-carbamoyl]imidazo[1,2-a]pyridin-3-yl]-2-pyridyl]carbamate], the inhibition at 20 ppm is ≥ 80%.

Regarding `COC(=O)Nc1ccc(-c2cnc3ccc(C(=O)N(C)c4ccc(C)c(C)c4)cn23)cn1` [Compound 65, methyl N-[5-[6-[(3,4-dimethylphenyl)-methyl-carbamoyl]imidazo[1,2-a]pyridin-3-yl]-2-pyridyl]carbamate], the inhibition at 20 ppm was ≥ 80%.

`CCOC(=O)c1cc(N(C)C(=O)c2ccc3ncc(-c4ccc(NC(=O)OC)nc4)n3c2)ccc1F` [Compound 176, ethyl 2-fluoro-5-[[3-[6-(methoxy-carbonylamino)-3-pyridyl]imidazo[1,2-a]pyridine-6-carbonyl]-methyl-amino]benzoate]: the inhibition at 20 ppm was ≥ 80%.

As to `COC(=O)Nc1ccc(-c2cnc3cc(C)c(C(=O)N(C)c4ccc(Cl)cc4)cn23)cc1` [Compound 18, methyl N-[4-[6-[(4-chlorophenyl)-methyl-carbamoyl]-7-methyl-imidazo[1,2-a]pyridin-3-yl]phenyl]carbamate], the inhibition at 20 ppm is ≥ 80%.

`COC(=O)Nc1ccc(-c2cnc3ccc(C(=O)N(C)c4cccc(C)c4)cn23)cn1` [Compound 54, methyl N-[5-[6-[methyl(m-tolyl)carbamoyl]imidazo [1,2-a]pyridin-3-yl]-2-pyridyl]carbamate]: the inhibition at 20 ppm was ≥ 80%.

Turning to `CCOC(=O)c1cccc(N(CC)C(=O)c2ccc3ncc(-c4ccc(NC(=O)OC)nc4)n3c2)c1` [Compound 122, ethyl 3-[ethyl-[3-[6-(methoxycarbonyl-amino)-3-pyridyl]imidazo[1,2-a]pyridine-6-carbonyl]amino]benzoate], the inhibition at 20 ppm is ≥ 80%.

Consider `CCN(C(=O)c1ccc2ncc(-c3ccc(NC(=O)OC)nc3)n2c1)c1cccc(F)c1` [Compound 145, methyl N-[5-[6-[ethyl-(3-fluorophenyl)carbamoyl]imidazo[1,2-a]pyridin-3-yl]-2-pyridyl]carbamate], for which the inhibition at 20 ppm is ≥ 80%.

`CCN(C(=O)c1ccc2ncc(-c3ccc(NC(=O)OC)nc3)n2c1)c1cccc(C#N)c1` [Compound 141, methyl N-[5-[6-[(3-cyanophenyl)-ethyl-carbamoyl]imidazo[1,2-a]pyridin-3-yl]-2-pyridyl]carbamate]: the inhibition at 20 ppm was ≥ 80%.

Regarding `COC(=O)Nc1ccc(-c2cnc3ccc(C(=O)N(CC#N)c4ccccc4)cn23)cn1` [Compound 108, methyl N-[5-[6-[cyanomethyl(phenyl)carbamoyl]imidazo[1,2-a]pyridin-3-yl]-2-pyridyl] carbamate], the inhibition at 20 ppm is ≥ 80%.

As for `COC(=O)Nc1ccc(-c2cnc3ccc(C(=O)N(CCC#N)c4ccc(C)cc4)cn23)cn1` [Compound 125, methyl N-[5-[6-[2-cyanoethyl(p-tolyl)carbamoyl]imidazo[1,2-a]pyridin-3-yl]-2-pyridyl]carbamate], the inhibition at 20 ppm is ≥ 80%.

For `COC(=O)Nc1ccc(-c2cnc3ccc(C(=O)N(CC#N)c4ccc(C)cc4)cn23)cn1` [Compound 143, methyl N-[5-[6-[cyanomethyl(p-tolyl)carbamoyl]imidazo [1,2-a]pyridin-3-yl]-2-pyridyl]carbamate], the inhibition at 20 ppm is ≥ 80%.

As for `COC(=O)Nc1ccc(-c2cnc3ccc(C(=O)N(C)c4cccc(Br)c4)cn23)cn1` [Compound 69, methyl N-[5-[6-[(3-bromophenyl)-methyl-carbamoyl]imidazo[1,2-a]pyridin-3-yl]-2-pyridyl]carbamate], the inhibition at 20 ppm is ≥ 80%.

With `COC(=O)Nc1ccc(-c2cnc3ccc(C(=O)N(C)c4ccc(Br)cc4)cn23)cn1` [Compound 68, methyl N-[5-[6-[(4-bromophenyl)-methyl-carbamoyl]imidazo[1,2-a]pyridin-3-yl]-2-pyridyl]carbamate], the inhibition at 20 ppm was ≥ 80%.

As for `CN(C(=O)c1ccc2ncc(-c3ccc(NC(=O)C4CC4)nc3)n2c1)c1ccc(F)cc1` [Compound 165, 3-[6-(cyclo-propanecarbonylamino)-3-pyridyl]-N-(4-fluorophenyl)-N-methyl-imidazo[1,2-a]pyridine-6-carboxamide], the inhibition at 20 ppm is ≥ 80%.

Regarding `COC(=O)Nc1ccc(-c2cnc3ccc(C(=O)N(C)c4ccc(C(C)=O)cc4)cn23)cn1` [Compound 104, methyl N-[5-[6-[(4-acetylphenyl)-methyl-carbamoyl]imidazo[1,2-a]pyridin-3-yl]-2-pyridyl]carbamate], the inhibition at 20 ppm was ≥ 80%.

Consider `CCC(=O)Nc1ccc(-c2cnc3ccc(C(=O)N(C)c4ccc(F)cc4)cn23)cn1` [Compound 166, N-(4-fluorophenyl)-N-methyl-3-[6-(propanoylamino)-3-pyridyl]imidazo[1,2-a]pyridine-6-carboxamide], for which the inhibition at 20 ppm is ≥ 80%.
